In ChEMBL document CHEMBL1201862, “PubChem BioAssay data set” (2004):
Blank lines part the entries; values can stand above or below the compound they belong to. Activity calls are given as the source filed them.

Experiments:
[1] = cytotoxicity in HEK-293T cells, dose response, cytotoxicity control for TCR NF-kB inhibitor project, luminescence, T-cell screen hits (AID 489026); assay type: functional, cell-based;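 note: cells exposed to compound about 14 hours before the viability readout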
[2] = Luminescence-based dose response cell-based high throughput screening assay for cytotoxic compounds using the IEC-6 intestinal epithelial cell line. [Related pubchem assays: 1858 (Summary AID.), 1825 (Counterscreen.), 1907 (Confirmation screen.)]; assay type: functional
ORF 73 = ORF 73 (Human herpesvirus 8, UniProt O40947); test: inhibitors of C-LANA binding to LBS DNA, dose response, biochemical, fluorescence polarization, cherry-picked samples (AID 504725); parameters: species or system Human gammaherpesvirus 8;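 note: fluorescence polarization of a labeled DNA duplex reporting LANA DNA binding; potency is for inhibitors that block LANA binding to the DNA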
[3] = biological target: DNA (cytosine-5)-methyltransferase 1 (Homo sapiens, UniProt P26358); test: DNMT1 methyltransferase inhibitors, confirmation, biochemical, fluorescent molecular beacon (AID 602386); assay type: functional
Cytochrome P450 2C19 = Cytochrome P450 2C19 (Homo sapiens, UniProt P33261); test: Cytochrome panel assay with activity outcomes. Panel member name: p450-cyp2c19 Compounds with AC50 equal or less than 10 uM are considered active; assay type: functional; conditions: read-out: AC50
[4] = biological target: Serine/threonine-protein phosphatase (Candida dubliniensis (strain CD36 / CBS 7987 / NCPF 3949 / NRRLY-17841) (Yeast), UniProt B9W6M3); test: calcineurin pathway inhibitors in yeast reporter, dose response, S. cerevisiae, CDRE-lacZ, luminescence, secondary (AID 2388); assay type: functional, cell-based;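 note: yeast reporter cells carrying a calcineurin-responsive lacZ construct stimulated with calcium chloride; luminescent beta-galactosidase reporter signal in whole cells rather than isolated phosphatase activity; potency for inhibition where a drop in reporter signal means calcineurin blockade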
[5] = biological target: 3-phosphoinositide-dependent protein kinase 1 (Homo sapiens, UniProt O15530); assay type: functional;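 note: value comes from the Navigating the Kinome panel, PDPK1 member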
[6] = biological target: Cyclin-dependent kinase 19 (Homo sapiens, UniProt Q9BWU1); test: Navigating the Kinome. Panel member name: CDC2L6; assay type: functional
[7] = biological target: Dual specificity tyrosine-phosphorylation-regulated kinase 3 (Homo sapiens, UniProt O43781); assay type: functional;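 note: measured as one member of a broad kinase panel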
[8] = biological target: Proto-oncogene tyrosine-protein kinase ROS (Homo sapiens, UniProt P08922); assay type: functional;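 note: ROS1 tested as one member of a kinome-wide kinase panel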
[9] = biological target: Vascular endothelial growth factor receptor 1 (Homo sapiens, UniProt P17948); assay type: functional;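 note: measured within a kinome-wide profiling panel, FLT1 as the panel member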
[10] = biological target: Ribosomal protein S6 kinase beta-1 (Homo sapiens, UniProt P23443); assay type: functional;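 note: measured as one member of a kinome-wide profiling panel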
[11] = biological target: Interleukin-1 receptor-associated kinase 4 (Homo sapiens, UniProt Q9NWZ3); assay type: functional
[12] = biological target: STE20-like serine/threonine-protein kinase (Homo sapiens, UniProt Q9H2G2); assay type: functional
[13] = biological target: Serine/threonine-protein kinase pim-1 (Homo sapiens, UniProt P11309); assay type: functional
[14] = biological target: Protein kinase C delta type (Homo sapiens, UniProt Q05655); assay type: functional
[15] = biological target: Serine/threonine-protein kinase D3 (Homo sapiens, UniProt O94806); assay type: functional;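 note: determined within a kinase panel screen, with PRKCN as the panel member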
[16] = biological target: Insulin-like growth factor 1 receptor (Homo sapiens, UniProt P08069); test: Navigating the Kinome. Panel member name: IGF1R; assay type: functional
[17] = biological target: Tyrosine-protein kinase Fyn (Homo sapiens, UniProt P06241); assay type: functional
Ephrin type-A receptor 2 = Ephrin type-A receptor 2 (Homo sapiens, UniProt P29317); assay type: functional;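 note: EPHA2 tested as one member of a kinome-wide kinase panel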
[18] = biological target: Cell division cycle 7-related protein kinase (Homo sapiens, UniProt O00311); assay type: functional;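 note: value obtained from a kinome-wide kinase panel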
[19] = biological target: Phosphorylase b kinase gamma catalytic chain, liver/testis isoform (Homo sapiens, UniProt P15735); assay type: functional;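 note: PHKG2 measured as one member of a kinome-wide kinase panel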
[20] = biological target: High affinity nerve growth factor receptor (Homo sapiens, UniProt P04629); assay type: functional;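 note: NTRK1 tested as one member of a kinome-wide profiling panel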
[21] = biological target: RAC-alpha serine/threonine-protein kinase (Homo sapiens, UniProt P31749); assay type: functional;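 note: AKT1 affinity measured as one member of a kinome-wide kinase profiling panel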
[22] = biological target: Fibroblast growth factor receptor 3 (Homo sapiens, UniProt P22607); assay type: functional
[23] = Artemis endonuclease inhibitor potency, dose response, biochemical, fluorescence intensity (AID 720701); assay type: functional;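 note: Artemis endonuclease enzyme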
[24] = biological target: T1, Sentrin-specific protease 6 (Homo sapiens, UniProt Q9GZR1); assay type: functional;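 note: Luminescence-based dose-response confirmatory assay of SENP6 inhibition, following up an ultra-high-throughput screen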
T1 sequence (Q9GZR1 whole entry): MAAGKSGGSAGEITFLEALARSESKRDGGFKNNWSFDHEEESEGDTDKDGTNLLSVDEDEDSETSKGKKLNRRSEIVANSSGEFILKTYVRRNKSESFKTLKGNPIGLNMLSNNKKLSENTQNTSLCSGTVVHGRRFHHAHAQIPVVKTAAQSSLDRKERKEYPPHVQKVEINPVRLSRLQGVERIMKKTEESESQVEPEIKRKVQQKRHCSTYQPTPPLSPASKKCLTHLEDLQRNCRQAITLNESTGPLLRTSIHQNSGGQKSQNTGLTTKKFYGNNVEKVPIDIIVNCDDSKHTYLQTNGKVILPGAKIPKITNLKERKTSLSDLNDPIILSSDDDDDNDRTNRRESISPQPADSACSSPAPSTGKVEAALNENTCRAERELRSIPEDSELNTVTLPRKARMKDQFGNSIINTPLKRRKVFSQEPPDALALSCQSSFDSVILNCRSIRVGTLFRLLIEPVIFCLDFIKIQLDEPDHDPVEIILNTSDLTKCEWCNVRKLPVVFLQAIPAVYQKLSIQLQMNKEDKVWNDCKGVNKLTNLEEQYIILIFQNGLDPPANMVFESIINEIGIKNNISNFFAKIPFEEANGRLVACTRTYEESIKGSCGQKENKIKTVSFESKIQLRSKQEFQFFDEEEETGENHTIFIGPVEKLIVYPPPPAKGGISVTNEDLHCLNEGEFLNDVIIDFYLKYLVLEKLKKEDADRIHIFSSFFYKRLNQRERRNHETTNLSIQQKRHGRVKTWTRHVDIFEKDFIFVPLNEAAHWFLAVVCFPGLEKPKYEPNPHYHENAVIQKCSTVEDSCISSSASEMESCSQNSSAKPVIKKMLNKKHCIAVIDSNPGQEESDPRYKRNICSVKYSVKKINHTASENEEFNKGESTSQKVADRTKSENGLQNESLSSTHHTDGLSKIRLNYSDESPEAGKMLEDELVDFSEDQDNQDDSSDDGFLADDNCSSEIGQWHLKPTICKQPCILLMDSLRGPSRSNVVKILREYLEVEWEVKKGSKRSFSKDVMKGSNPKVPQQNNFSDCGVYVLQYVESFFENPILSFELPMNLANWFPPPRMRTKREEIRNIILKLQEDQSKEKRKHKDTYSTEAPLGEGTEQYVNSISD

[25] = biological target: DNA dC->dU-editing enzyme APOBEC-3G (Homo sapiens, UniProt Q9HC16); test: Dose Response confirmation of small molecule APOBEC3G DNA Deaminase Inhibitors via a fluorescence-based single-stranded DNA deaminase assay. [Related pubchem assays (depositor defined):AID493012, AID493028]; assay type: functional
Chain of DNA dC->dU-editing enzyme APOBEC-3G (Q9HC16 whole entry): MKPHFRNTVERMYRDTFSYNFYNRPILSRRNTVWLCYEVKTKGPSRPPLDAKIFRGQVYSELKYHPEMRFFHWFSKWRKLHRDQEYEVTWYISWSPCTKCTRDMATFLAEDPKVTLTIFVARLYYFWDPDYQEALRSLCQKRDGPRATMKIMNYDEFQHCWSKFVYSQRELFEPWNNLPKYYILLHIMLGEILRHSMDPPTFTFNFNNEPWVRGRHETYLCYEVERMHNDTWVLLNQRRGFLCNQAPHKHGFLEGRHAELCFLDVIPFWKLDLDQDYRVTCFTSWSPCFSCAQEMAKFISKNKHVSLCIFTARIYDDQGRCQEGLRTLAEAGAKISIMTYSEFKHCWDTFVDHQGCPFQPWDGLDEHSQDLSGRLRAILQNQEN

Chain of Serine/threonine-protein kinase D3 (O94806 whole entry): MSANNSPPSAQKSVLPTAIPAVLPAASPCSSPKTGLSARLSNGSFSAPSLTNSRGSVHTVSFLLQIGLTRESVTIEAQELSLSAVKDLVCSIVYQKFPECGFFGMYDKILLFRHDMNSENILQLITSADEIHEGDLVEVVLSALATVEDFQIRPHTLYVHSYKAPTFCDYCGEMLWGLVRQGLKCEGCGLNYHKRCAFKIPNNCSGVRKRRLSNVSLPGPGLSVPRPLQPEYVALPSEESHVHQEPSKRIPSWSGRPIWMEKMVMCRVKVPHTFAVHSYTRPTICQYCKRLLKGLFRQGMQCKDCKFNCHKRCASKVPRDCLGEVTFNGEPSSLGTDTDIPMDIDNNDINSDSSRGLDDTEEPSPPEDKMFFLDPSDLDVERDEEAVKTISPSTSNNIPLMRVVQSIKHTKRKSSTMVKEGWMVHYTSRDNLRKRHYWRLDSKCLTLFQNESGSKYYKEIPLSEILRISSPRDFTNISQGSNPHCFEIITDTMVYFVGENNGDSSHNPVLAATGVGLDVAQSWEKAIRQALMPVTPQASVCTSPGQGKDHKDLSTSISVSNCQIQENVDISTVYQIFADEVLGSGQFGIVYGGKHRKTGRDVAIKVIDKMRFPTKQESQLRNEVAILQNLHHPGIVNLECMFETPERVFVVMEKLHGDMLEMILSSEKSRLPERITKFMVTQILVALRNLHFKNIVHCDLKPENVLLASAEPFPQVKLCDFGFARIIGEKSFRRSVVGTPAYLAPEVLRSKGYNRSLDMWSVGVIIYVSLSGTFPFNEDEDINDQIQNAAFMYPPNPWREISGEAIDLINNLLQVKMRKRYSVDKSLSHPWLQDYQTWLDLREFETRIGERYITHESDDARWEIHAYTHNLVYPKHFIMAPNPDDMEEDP
Chain of Ribosomal protein S6 kinase beta-1 (P23443 whole entry): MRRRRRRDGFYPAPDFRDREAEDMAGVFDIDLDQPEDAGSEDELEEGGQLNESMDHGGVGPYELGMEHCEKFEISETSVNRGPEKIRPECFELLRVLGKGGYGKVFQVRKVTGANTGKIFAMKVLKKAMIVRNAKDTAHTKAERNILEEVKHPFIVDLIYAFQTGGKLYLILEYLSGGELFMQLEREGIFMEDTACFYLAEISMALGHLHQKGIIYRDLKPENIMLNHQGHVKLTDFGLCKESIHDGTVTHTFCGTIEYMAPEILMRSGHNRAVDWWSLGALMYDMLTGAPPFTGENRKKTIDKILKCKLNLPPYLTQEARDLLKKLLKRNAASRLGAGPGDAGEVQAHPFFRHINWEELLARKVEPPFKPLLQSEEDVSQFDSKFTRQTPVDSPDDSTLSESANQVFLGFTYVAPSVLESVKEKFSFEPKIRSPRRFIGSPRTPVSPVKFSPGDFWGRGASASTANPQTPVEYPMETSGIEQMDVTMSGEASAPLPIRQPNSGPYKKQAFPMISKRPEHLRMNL
Chain of Serine/threonine-protein kinase pim-1 (P11309 whole entry): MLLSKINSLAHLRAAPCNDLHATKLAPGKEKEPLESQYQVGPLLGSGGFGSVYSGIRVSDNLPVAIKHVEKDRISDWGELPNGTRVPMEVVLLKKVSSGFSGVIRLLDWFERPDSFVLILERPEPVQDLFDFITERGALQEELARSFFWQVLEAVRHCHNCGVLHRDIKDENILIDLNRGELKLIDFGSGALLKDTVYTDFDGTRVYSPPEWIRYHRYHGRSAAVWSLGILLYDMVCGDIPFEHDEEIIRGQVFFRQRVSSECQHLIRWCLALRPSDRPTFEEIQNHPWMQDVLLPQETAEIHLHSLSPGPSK
Chain of Tyrosine-protein kinase Fyn (P06241 whole entry): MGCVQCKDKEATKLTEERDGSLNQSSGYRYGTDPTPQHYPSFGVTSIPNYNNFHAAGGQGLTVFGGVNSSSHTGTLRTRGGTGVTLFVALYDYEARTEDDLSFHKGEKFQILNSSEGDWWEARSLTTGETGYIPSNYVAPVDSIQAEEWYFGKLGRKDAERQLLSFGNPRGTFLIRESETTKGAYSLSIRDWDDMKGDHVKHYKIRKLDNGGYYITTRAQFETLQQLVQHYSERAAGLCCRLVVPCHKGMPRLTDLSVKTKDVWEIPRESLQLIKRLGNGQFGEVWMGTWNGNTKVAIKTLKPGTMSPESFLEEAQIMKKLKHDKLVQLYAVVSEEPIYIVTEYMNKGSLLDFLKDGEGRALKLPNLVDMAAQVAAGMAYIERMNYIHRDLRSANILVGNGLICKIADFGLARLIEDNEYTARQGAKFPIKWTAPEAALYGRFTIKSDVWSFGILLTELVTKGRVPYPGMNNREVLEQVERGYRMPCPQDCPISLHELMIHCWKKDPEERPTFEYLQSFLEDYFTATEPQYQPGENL
Chain of Protein kinase C delta type (Q05655 whole entry): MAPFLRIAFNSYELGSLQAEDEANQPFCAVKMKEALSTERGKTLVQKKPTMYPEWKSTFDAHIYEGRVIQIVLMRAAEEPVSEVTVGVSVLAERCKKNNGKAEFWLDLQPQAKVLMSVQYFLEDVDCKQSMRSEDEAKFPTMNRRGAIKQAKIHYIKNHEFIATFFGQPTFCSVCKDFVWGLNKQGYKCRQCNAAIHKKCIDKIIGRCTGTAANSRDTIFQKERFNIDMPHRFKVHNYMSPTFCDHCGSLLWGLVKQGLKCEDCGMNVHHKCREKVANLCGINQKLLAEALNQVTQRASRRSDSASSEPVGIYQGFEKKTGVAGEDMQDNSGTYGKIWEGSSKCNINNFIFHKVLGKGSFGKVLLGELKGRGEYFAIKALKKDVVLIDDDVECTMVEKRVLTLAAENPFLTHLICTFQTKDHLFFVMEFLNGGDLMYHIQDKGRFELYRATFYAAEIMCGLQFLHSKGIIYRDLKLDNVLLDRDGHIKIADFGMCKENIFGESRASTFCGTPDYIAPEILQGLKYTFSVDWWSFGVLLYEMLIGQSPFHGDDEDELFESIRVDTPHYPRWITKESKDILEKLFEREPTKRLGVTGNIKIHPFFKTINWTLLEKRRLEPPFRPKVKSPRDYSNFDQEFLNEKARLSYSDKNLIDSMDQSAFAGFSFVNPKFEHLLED
Chain of DNA (cytosine-5)-methyltransferase 1 (P26358 whole entry): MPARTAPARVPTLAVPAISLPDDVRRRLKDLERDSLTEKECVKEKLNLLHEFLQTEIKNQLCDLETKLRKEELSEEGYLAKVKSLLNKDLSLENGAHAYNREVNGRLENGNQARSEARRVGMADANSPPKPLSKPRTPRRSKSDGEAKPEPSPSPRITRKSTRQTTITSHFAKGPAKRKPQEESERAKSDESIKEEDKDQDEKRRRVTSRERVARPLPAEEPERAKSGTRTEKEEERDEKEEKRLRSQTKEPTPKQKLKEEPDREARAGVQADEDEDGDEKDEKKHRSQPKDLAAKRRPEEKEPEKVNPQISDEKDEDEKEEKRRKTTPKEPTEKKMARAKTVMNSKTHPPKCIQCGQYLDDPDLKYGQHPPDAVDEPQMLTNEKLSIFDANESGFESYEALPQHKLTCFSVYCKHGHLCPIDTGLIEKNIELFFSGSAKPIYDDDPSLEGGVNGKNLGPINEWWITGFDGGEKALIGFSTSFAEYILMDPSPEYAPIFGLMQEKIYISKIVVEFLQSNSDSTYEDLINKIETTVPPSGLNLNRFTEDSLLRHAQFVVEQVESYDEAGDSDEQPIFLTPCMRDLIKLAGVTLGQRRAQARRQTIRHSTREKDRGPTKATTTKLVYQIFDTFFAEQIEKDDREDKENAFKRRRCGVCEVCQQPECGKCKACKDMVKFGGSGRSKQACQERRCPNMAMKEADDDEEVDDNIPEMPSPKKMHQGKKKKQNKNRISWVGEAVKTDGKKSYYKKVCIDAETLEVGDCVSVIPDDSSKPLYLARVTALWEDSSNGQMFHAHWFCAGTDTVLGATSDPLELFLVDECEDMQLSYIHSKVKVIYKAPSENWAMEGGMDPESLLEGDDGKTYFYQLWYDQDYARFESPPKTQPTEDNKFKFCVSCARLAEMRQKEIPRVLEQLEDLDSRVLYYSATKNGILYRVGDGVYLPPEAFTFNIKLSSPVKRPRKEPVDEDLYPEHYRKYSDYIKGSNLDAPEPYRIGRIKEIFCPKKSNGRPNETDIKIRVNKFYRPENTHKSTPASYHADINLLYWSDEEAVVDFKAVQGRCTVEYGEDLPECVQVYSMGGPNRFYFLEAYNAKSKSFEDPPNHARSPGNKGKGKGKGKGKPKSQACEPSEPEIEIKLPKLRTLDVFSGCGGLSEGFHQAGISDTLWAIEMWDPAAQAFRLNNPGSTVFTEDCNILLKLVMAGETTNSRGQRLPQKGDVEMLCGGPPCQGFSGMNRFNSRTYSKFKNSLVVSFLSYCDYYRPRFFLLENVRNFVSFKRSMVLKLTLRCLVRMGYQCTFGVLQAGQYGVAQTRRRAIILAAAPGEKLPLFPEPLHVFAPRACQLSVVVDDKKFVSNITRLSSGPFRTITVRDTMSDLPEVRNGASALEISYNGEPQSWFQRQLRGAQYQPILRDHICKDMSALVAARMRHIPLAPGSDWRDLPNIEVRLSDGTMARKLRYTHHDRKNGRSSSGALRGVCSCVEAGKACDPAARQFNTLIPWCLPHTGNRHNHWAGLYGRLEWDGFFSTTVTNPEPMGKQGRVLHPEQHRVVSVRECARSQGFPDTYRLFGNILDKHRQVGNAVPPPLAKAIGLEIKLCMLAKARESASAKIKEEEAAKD

SMILES: CCC(=O)NC(c1ccc(C)cc1)c1ccc2cccnc2c1O (stereo not drawn)
IC50 [1]: > 80 µM (inactive) | IC50 [2]: 1.62 µM (active)

SMILES: N/C(=N\N=C/c1ccc(-c2ccc(O)c(C(=O)O)c2)o1)N[N+](=O)[O-]
AC50 (ORF 73): 111 µM (active) | IC50 [3]: 3.94 µM (active) | AC50 (Cytochrome P450 2C19): 39.8 µM (inconclusive)

SMILES: CCCC(=O)NC(c1ccc(Cl)cc1)c1ccc2cccnc2c1O (stereo not drawn)
EC50 [4]: 45.4 µM (active)

Ki [5]: > 3.98 µM (inactive) | Ki [6]: > 100 µM (inactive) | Ki [7]: > 6.31 µM (inactive) | Ki [8]: 2 µM (active) | Ki [9]: 0.00631 µM (active) | Ki [10]: 0.0398 µM (active) | Ki [11]: > 10 µM (inactive) | Ki [12]: 0.0631 µM (active) | Ki [13]: 3.98 µM (active) | Ki [14]: 7.94 µM (active) | Ki [15]: 2.51 µM (active) | Ki [16]: > 2 µM (inactive) | Ki [17]: > 0.794 µM (inactive) | Ki (Ephrin type-A receptor 2): 0.0316 µM (active) | Ki [18]: > 1.26 µM (inactive) | Ki [19]: > 5.01 µM (inactive) | Ki [20]: 1.26 µM (active) | Ki [21]: > 7.94 µM (inactive) | Ki [22]: > 2 µM (inactive)
SMILES: Cc1cccc(NC(=O)Nc2ccc3c(c2)CCc2sc4ncnc(N)c4c2-3)c1

SMILES: CC(=O)N(/N=C1\Sc2ccccc2C1=O)c1ccccc1C
IC50 [23]: 7.4 µM (active) | IC50 [24]: 1.91 µM (active)

SMILES: Cc1ccc(-n2sc3ccccc3c2=O)cc1
IC50 [25]: 18.2 µM (active)
